What was measured:
[1] = molecular target: T1, baculovirus-expressed human trkA cytoplasmic domain (Homo sapiens, UniProt P04629); experiment: Inhibition of trkA tyrosine kinase activity (ELISA-based assay); assay type: biochemical; conditions: for IC50: 40 μM ATP; for trkA kinase activity % Inh. @ 300 nM (values in parentheses): 300 nM compound
T1 construct: baculovirus-expressed human trkA cytoplasmic domain; made in house; host or cells: baculovirus expression system
Procedure: Selected cyclic substituted fused pyrrolocarbazole and isoindolone compounds were tested for their ability to inhibit the kinase activity of baculovirus-expressed human trkA cytoplasmic domain using an ELISA-based assay as previously described (Angeles et al., Anal. Biochem. 236: 49-55, 1996). Briefly, the 96-well microtiter plate was coated with substrate solution (recombinant human phospholipase C-γ1/glutathione S-transferase fusion protein (Rotin et al., EMBO J., 11: 559-567, 1992). Inhibition studies were performed in 100 μl assay mixtures containing 50 mM Hepes, pH 7.4, 40 μM ATP, 10 mM MnCl2, 0.1% BSA, 2% DMSO, and various concentrations of inhibitor. The reaction was initiated by addition of trkA kinase and allowed to proceed for 15 minutes at 37° C. An antibody to phosphotyrosine (UBI) was then added, followed by a secondary enzyme-conjugated antibody, alkaline phosphatase-labelled goat antII-mouse IgG (Bio-Rad). The activity of the bound enzyme was measured via an amplified detection system (Gibco-BRL). Inhibition data were analyzed using the sigimoidal dose-response (variable slope) equation in GraphPad Prism.

[2] = molecular target: T2, trkA (NIH3T3 cells transfected with trkA) (Homo sapiens, UniProt P04629); experiment: Inhibition of NGF-stimulated trk phosphorylation in a whole cell preparation; assay type: cell-based; conditions: NGF 10 ng/ml; for Cell Score @ 100 nM (percent decrease in trk protein band): 100 nM compound; for Cell Score @ 1 uM (percent decrease in trk protein band): 1 uM compound
T2 construct: expressed in transfected cells; host or cells: NIH3T3
Procedure: NIH3T3 cells transfected with trkA were grown in 100 mm dishes. Subconfluent cells were serum-starved by replacing media with serum-free 0.05% BSA-DMEM containing compound (100 nM and 1 μM) or DMSO (added to controls) for one hour at 37° C. NGF (Harlan/Bioproducts for Science) was then added to the cells at a concentration of 10 ng/ml for 5 minutes. Cells were lysed in buffer containing detergent and protease inhibitors. Clarified cell lysates were normalized to protein using BCA method and immunoprecipitated with antII-trk antibody. Polyclonal antII-trk antibody was prepared against a peptide corresponding to the 14 amino acids at the carboxy terminus of trk (Martin-Zanca et al., Mol. Cell. Biol. 9: 24-33, 1989). The immune complexes were collected on Protein A Sepharose beads (Sigma Chem. Co., St. Lois, Mo.), separated by SDS polyacrylamide gel electrophoresis (SDS-PAGE), and transferred to a polyvinylidene difluoride (PVDF) membrane. The membrane was immunoblotted with antII-phosphotyrosine antibody (UBI), followed by incubation with horseradish peroxidase coupled goat antII-mouse IgG (Bio-Rad Laboratories, Hercules, Calif.). Phosphorylated proteins were visualized using ECL (Arnersham Life Science, Inc., Arlington Heights, Ill.). The area of the trk protein band was measured and compared to NGF-stimulated control. The inhibition scoring system used, based on percent decrease in trk protein band, was as follows: 0=no decrease; 1=1-25%; 2=26-49%; 3=50-75%; 4=76-100%.

[3] = molecular target: T3, VEGF receptor (human flk-1, KDR, VEGFR2) kinase domain (Homo sapiens, UniProt P35968); experiment: Inhibition of vascular endothelial growth factor receptor kinase activity (ELISA); assay type: biochemical; conditions: for IC50: 40 μM ATP; for inhibition at 0.3 µM / VEGF receptor kinase activity % Inh. @ 300 nM (values in parentheses): 300 nM compound; for inhibition at 0.3 µM: read-out: VEGF receptor kinase activity % Inh. @ 300 nM (values in parentheses)
T3 construct: VEGF receptor (human flk-1, KDR, VEGFR2) kinase domain; made in house; host or cells: baculovirus expression system
Procedure: Cyclic substituted fused pyrrolocarbazole and isoindolone compounds were examined for their inhibitory effects on the kinase activity of baculovirus-expressed VEGF receptor (human flk-1, KDR, VEGFR2) kinase domain using the procedure described for the trkA kinase ELISA assay described above. The kinase reaction mixture, consisting of 50 mM Hepes, pH 7.4, 40 μM ATP, 10 mM MnCl2, 0.1% BSA, 2% DMSO, and various concentrations of inhibitor, was transferred to PLC-γ/GST-coated plates. VEGFR kinase was added and the reaction was allowed to proceed for 15 min. at 37 C. Detection of phosphorylated product was accomplished by addition of antII-phosphotyrosine antibody (UBI). A secondary enzymeconjugated antibody was delivered to capture the antibody-phosphorylated PLC-γ/GST complex. The activity of the bound enzyme was measured via an amplified detection system (Gibco-BRL). Inhibition data were analyzed using the sigmoidal dose-response (variable slope) equation in GraphPad Prism.

[4] = molecular target: protein kinase C (UBI; mixed isozymes of a, b, g); experiment: Inhibition of protein kinase C activity (Millipore Multiscreen TCA in-plate assay); assay type: biochemical
Procedure: Protein kinase C activity was assessed using the Millipore Multiscreen TCA “in-plate” assay as described in Pitt, A. M. and Lee, C. (J. Biomol. Screening, 1: 47-51, 1996). Assays were performed in 96-well Multiscreen-DP plates (Millipore). Each […] assay mixture contained 20 mM Hepes, pH 7.4, 10 mM MgCl2, 2.5 mM EGTA, 2.5 mM CaCl2, […] phosphatidyl serine, […] diolein, […] histone H-1 (Fluka), […] [γ-^32P]ATP, 1.5 ng protein kinase C (UBI; mixed isozymes of a, b, g), 0.1% BSA, 2% DMSO, and test cyclic substituted fused pyrrolocarbazole compound. The reaction was allowed to proceed for 10 min at 37° C., then quenched by adding ice cold 50% trichloroacetic acid. The plates were allowed to equilibrate for 30 min at 4° C., then washed with ice cold 25% TCA. Scintillation cocktail was added to the plates, and the radioactivity was determined using Wallac MicroBeta 1450 PLUS scintillation counter. The IC50 values were calculated by fitting the data to the sigmoidal dose-response (variable slope) equation in GraphPad Prism.

T1 sequence (P04629 440-796 limits assumed): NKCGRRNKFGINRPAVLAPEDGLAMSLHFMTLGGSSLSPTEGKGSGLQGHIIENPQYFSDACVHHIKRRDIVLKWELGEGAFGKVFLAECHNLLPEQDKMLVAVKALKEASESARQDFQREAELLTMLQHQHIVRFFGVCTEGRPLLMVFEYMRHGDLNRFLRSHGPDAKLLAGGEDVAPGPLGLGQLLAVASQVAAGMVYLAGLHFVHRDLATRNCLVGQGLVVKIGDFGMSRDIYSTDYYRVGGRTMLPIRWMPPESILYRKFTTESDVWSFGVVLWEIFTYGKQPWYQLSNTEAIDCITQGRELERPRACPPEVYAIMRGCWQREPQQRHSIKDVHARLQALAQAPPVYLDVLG
T2 sequence (P04629 33-796, species assumed): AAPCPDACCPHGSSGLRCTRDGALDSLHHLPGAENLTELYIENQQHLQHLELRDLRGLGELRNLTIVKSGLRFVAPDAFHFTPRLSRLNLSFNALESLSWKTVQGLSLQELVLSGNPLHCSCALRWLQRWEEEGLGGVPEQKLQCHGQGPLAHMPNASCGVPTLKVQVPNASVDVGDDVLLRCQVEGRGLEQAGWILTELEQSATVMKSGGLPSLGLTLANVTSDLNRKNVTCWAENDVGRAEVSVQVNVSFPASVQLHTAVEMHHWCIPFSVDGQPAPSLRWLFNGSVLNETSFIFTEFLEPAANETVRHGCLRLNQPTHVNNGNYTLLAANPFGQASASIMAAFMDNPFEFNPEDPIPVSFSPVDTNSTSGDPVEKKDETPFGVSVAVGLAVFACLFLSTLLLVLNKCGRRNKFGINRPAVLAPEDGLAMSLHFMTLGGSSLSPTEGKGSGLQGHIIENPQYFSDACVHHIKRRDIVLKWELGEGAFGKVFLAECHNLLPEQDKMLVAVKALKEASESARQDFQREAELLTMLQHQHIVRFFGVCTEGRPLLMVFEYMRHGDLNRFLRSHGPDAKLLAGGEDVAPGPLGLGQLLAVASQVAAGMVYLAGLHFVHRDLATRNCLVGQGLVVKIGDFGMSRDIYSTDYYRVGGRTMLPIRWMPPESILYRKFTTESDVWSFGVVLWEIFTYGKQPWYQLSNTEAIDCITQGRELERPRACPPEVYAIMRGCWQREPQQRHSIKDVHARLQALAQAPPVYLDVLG
T3 sequence (P35968 834-1162 limits assumed): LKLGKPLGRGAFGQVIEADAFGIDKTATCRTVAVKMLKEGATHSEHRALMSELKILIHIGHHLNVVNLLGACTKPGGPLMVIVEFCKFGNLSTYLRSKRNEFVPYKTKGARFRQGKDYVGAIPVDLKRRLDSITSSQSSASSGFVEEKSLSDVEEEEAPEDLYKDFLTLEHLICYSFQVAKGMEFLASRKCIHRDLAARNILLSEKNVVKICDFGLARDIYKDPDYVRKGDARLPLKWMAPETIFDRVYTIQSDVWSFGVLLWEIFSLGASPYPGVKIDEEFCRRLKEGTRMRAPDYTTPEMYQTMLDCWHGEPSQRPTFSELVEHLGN

IC50 [1] [nM]	Cell Score @ 100 nM (percent decrease in trk protein band) [2]	Cell Score @ 1 uM (percent decrease in trk protein band) [2]	IC50 [4] [µM]	Compound	further results
162				O=C1NCc2c1c1c(c3[nH]c4ccccc4c23)C(C2(CCCCl)CCCO2)c2ccccc2-1 (stereo not drawn) [II-19]	inhibition at 0.3 µM [3]: 46%
163				O=C1NCc2c1c1c(c3c2c2ccccc2n3C[C@H]2CO2)Cc2ccccc2-1 [II-01c]	IC50 [3]: 168 nM
				O=C1NCc2c1c1c(c3[nH]c4ccccc4c23)C(C2CCOC2=O)c2ccccc2-1 (single isomer, unassigned) [II-60]	VEGF receptor kinase activity % Inh. @ 300 nM (values in parentheses) [3]: (45) %
45	2 (2=26-49%)	4 (4=76-100%)	2.07	CC1(C2c3ccccc3-c3c4c(c5c([nH]c6ccccc65)c32)CNC4=O)CC(O)(CO)CO1 (stereo not drawn) [II-26]	inhibition at 0.3 µM [3]: 48%
15	2 (2=26-49%)	4 (4=76-100%)	> 10	O=C1NCc2c1c1c(c3[nH]c4ccccc4c23)C(C2(CO)CCCO2)c2ccccc2-1 (stereo not drawn) [II-21]	
182			1.57	CN1CCC(O)(C2c3ccccc3-c3c4c(c5c([nH]c6ccccc65)c32)CNC4=O)CC1 (stereo not drawn) [II-10]	
				O=C1NCc2c1c1c(c3c2c2ccccc2n3CC2CCCOC2)Cc2ccccc2-1 (racemic) [II-63]	trkA kinase activity % Inh. @ 300 nM (values in parentheses) [1]: (28) %; Protein kinase C activity, values in parentheses ([4]; concentration not given): (28)
64			7.5	O=C1NCc2c1c1c(c3[nH]c4ccccc4c23)C(C2(O)CCN(Cc3ccccc3)CC2)c2ccccc2-1 (stereo not drawn) [II-02]	
72			4.07	O=C1NCc2c1c1c(c3[nH]c4ccccc4c23)C(C2(O)CCOCC2)c2ccccc2-1 (stereo not drawn) [II-03]	
59				CCOC1CCC(C2c3ccccc3-c3c4c(c5c([nH]c6ccccc65)c32)CNC4=O)O1 (stereo not drawn) [II-40b]	IC50 [3]: 1420 nM
19	1 (1=1-25%)	2 (2=26-49%)	7.12	O=C1NCc2c1c1c(c3[nH]c4ccccc4c23)C(C2CCCO2)c2ccccc2-1 (stereo not drawn) [II-07]	
80				O=C1NCc2c1c1c(c3[nH]c4ccccc4c23)C(C2(CCl)CCCO2)c2ccccc2-1 (stereo not drawn) [II-44]	IC50 [3]: > 1000 nM
				CCOC1COCC(C)(C2c3ccccc3-c3c4c(c5c([nH]c6ccccc65)c32)CNC4=O)O1 (mixture of isomers) [II-51bc]	trkA kinase activity % Inh. @ 300 nM (values in parentheses) ([1]; 0.3 µM): (56) %; VEGF receptor kinase activity % Inh. @ 300 nM (values in parentheses) ([3]; 0.3 µM): (62) %

Compound	IC50 [1] [nM]	Cell Score @ 100 nM (percent decrease in trk protein band) [2]	Cell Score @ 1 uM (percent decrease in trk protein band) [2]	IC50 [4] [µM]	further results
CCOC1CCC(CO)(C2c3cc(OC)ccc3-c3c4c(c5c([nH]c6ccccc65)c32)CNC4=O)O1 (single isomer, unassigned) [II-54]	59	2 (2=26-49%)	4 (4=76-100%)		IC50 [3]: 122 nM
CC1(C2c3ccccc3-c3c4c(c5c([nH]c6ccccc65)c32)CNC4=O)CCCO1 (single isomer, unassigned) [II-30a]	214				inhibition at 0.3 µM [3]: 59%
CC1(C2c3ccccc3-c3c4c(c5c([nH]c6ccccc65)c32)CNC4=O)CCCO1 (racemic) [II-04]	8	1 (1=1-25%)	2 (2=26-49%)	> 10	

Reference: patent US6841567B1, “Cyclic substituted fused pyrrolocarbazoles and isoindolones” (Cephalon, Inc., priority 1999, dated 2005)
